The source of these data is PMC8587871, “Novel Thiosemicarbazone Derivatives: In Vitro and In Silico Evaluation as Potential MAO-B Inhibitors” (Molecules, 2021).

The target in one data set is T1, hMAO-A (Homo sapiens, UniProt P21397).
T1 sequence (P21397 1-527): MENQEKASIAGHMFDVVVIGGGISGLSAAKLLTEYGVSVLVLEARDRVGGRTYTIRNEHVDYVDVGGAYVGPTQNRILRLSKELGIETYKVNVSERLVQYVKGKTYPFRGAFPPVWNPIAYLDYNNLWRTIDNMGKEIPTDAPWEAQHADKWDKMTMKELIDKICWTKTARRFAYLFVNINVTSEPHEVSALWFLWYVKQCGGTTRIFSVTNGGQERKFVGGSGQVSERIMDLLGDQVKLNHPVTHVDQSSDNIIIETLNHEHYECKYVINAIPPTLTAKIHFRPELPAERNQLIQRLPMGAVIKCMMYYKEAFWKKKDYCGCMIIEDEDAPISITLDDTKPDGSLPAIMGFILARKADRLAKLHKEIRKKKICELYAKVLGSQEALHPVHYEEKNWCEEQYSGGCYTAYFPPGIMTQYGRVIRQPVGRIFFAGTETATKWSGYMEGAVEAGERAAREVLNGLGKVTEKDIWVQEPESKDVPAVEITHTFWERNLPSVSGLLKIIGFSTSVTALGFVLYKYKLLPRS
Kind of data set: In vitro fluorometric MAO-A inhibition assay. The format is biochemical. Particulars: for inhibition at 1000 µM: 10^−3 M; for inhibition at 100 µM: 10^−4 M. On the procedure:
(§1) The inhibition power on MAO isoenzymes of the synthesized compounds was evaluated by using the in vitro fluorometric method declared previously by our research group.
(§2) The in vitro MAO inhibition test was performed using the available fluorometric method, and the percentages and IC50 values of obtained compounds were calculated as previously described by our research group.

Data set [1] concerns the target T2, hMAO-B (Homo sapiens, UniProt P27338).
T2 sequence (P27338 1-520): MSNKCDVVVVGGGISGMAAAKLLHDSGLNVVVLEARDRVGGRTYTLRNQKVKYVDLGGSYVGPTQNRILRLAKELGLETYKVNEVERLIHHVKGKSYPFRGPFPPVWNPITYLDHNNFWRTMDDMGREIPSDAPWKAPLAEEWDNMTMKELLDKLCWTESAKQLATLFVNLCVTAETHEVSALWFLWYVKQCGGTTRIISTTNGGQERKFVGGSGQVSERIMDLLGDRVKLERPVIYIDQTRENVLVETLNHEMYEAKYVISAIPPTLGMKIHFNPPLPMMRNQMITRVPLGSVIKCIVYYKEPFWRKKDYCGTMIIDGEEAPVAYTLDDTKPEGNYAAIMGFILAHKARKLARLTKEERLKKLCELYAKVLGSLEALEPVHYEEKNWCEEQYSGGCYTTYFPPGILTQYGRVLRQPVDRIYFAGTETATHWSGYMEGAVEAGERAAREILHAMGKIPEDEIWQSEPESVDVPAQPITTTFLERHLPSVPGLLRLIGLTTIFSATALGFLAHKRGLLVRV
The data set can be described thus: In vitro fluorometric MAO-B inhibition assay. In kind it is biochemical. Particulars: for inhibition at 1000 µM: 10^−3 M; for inhibition at 100 µM: 10^−4 M; for inhibition at 10 µM: 10^−5 M; for inhibition at 1 µM: 10^−6 M; for inhibition at 0.1 µM: 10^−7 M; for inhibition at 0.01 µM: 10^−8 M; for inhibition at 0.001 µM: 10^−9 M; for IC50: read-out: IC50 against MAO-B. The method, then: as §1, §2

The target of data set [2] is T2, hMAO-B. Kind of data set: Enzyme kinetic study (Lineweaver–Burk and secondary plots) of hMAO-B inhibition. In kind it is biochemical. Particulars: substrate tyramine; for Type of hMAO-B inhibition: Lineweaver–Burk plots; for Ki: secondary plots, read-out: Ki (steady-state inhibition constant) for hMAO-B. The text has this:
Enzyme kinetic studies help to determine the inhibitory character of the relevant compound on the enzyme as irreversible or reversible inhibition, and to evaluate the nature of the inhibition of the relevant compound. The linear Lineweaver–Burk plots are the most commonly used method for this purpose. […] Enzyme kinetic assay was applied in the same way as previously mentioned. […] The rate curves of substrates were reported in the absence and presence of these compounds. In all cases, initial velocity measurements were collected at various substrate (tyramine) concentrations ranging from 20 µM to 0.625 µM. Thus, linear Lineweaver–Burk graphs of compounds 2b and 2h were formed as in Figure 4A and Figure 5A, respectively.
According to Lineweaver–Burk plots, reversible and irreversible inhibition type constitute two general categories. Mixed-type, uncompetitive, competitive, and non-competitive inhibition types are included in the reversible inhibition.
The same materials used in the MAO inhibition assay were used in this experiment. […] All processes were evaluated in quadruplicate. The results were analyzed with Microsoft Office Excel 2013 using Lineweaver–Burk diagrams. […] of the Lineweaver–Burk plots were replotted versus the inhibitors’ concentrations, and the Ki values were determined from the x-axis intercept as -Ki.

A short description of another data set: MTT cytotoxicity assay. In kind it is cell-based, mouse. As to conditions: mouse, NIH/3T3 mouse embryonic fibroblast cells; MTT assay; read-out: IC50 against NIH/3T3 cells. The method, then: (§3) The NIH/3T3 mouse embryonic fibroblast cell line (ATCC® CRL-1658™, London, UK) was used for cytotoxicity assays. The incubation period of NIH/3T3 cells was based on the supplier’s recommendation. NIH/3T3 cells were seeded at 1 × 10^4 cells into each well of 96-well plates. MTT assay was carried out in accordance with the standards previously described.
In general terms: Tetrazolium dyes change colour on reduction, which living cells bring about.

Data set [3] has as its system NIH/3T3 mouse embryonic fibroblast cell line. Kind of data set: MTT cytotoxicity assay. The format is cell-based. Particulars: for Cytotoxicity at effective concentration against MAO-B: MTT assay, NIH/3T3. On the procedure: as §3

As to `CCNC(=S)NN=Cc1cc2ccccc2o1` [Compound 2a, 2-(Benzofuran-2-ylmethylene)-N-ethylhydrazine-1-carbothioamide], the melting point is 179.9 to 182.1 °C. At hMAO-A, this compound showed an inhibition at 1000 µM of 34.1 ± 0.927% and an inhibition at 100 µM of 22.3 ± 0.824%. At hMAO-B [1], this compound registered an inhibition at 1000 µM of 74.2 ± 1.41% and an inhibition at 100 µM of 46.4 ± 0.997%.

With `COCCNC(=S)NN=Cc1cc2ccccc2o1` [Compound 2b, 2-(Benzofuran-2-ylmethylene)-N-(2-methoxyethyl)hydrazine-1-carbothioamide], the melting point lay in the range of 147.5 to 148.8 °C. Besides, on hMAO-A, the inhibition at 1000 µM turned out to be 33 ± 0.955% and the inhibition at 100 µM stood at 28.4 ± 0.899%. On hMAO-B [1], this compound yielded an inhibition at 1000 µM of 91.6 ± 1.65%, an inhibition at 10 µM of 81.5 ± 1.72%, an inhibition at 1 µM of 75 ± 1.63% and an inhibition at 0.1 µM of 66.4 ± 0.975%. For the same compound, at hMAO-B [1], at 0.01 µM the inhibition was 41.5 ± 0.856%, 0.001 µM produced 25.8 ± 0.765% inhibition and the IC50 turned out to be 42 ± 2 nM. At hMAO-B [2], the “Type of hMAO-B inhibition” value is “reversible and non-competitive”; the Ki is 35 nM. Moreover, in “MTT cytotoxicity assay”, the IC50 is 130000 nM. For the same compound, the “Cytotoxicity at effective concentration against MAO-B” value in data set [3] was “non-cytotoxic”. In addition, the IC50 in data set [3] (Mus musculus, NIH3T3, Table 3 column 1 as headed) was 0.042 ± 0.002 µM.

As to `CCCCNC(=S)NN=Cc1cc2ccccc2o1` [Compound 2c, 2-(Benzofuran-2-ylmethylene)-N-butylhydrazine-1-carbothioamide], the melting point lay within 120.4 to 121.2 °C. Moreover, at hMAO-A, the inhibition at 1000 µM stood at 30.4 ± 0.902% and the inhibition at 100 µM came out at 26.7 ± 0.82%. Further, at hMAO-B [1], 1000 µM produced 76.3 ± 1.62% inhibition and the inhibition at 100 µM came to 43.5 ± 0.728%.

With `S=C(NN=Cc1cc2ccccc2o1)NC1CCCCC1` [Compound 2d, 2-(Benzofuran-2-ylmethylene)-N-cyclohexylhydrazine-1-carbothioamide], the melting point lay within 191.2 to 192.9 °C. In addition, on hMAO-A, the inhibition at 1000 µM is 37.5 ± 0.897% and at 100 µM the inhibition was 20.9 ± 0.834%. Further, on hMAO-B [1], the inhibition at 1000 µM was determined as 82.6 ± 1.32% and the inhibition at 100 µM is 41.1 ± 0.956%.

Turning to `S=C(NN=Cc1cc2ccccc2o1)Nc1ccccc1` [Compound 2e, 2-(Benzofuran-2-ylmethylene)-N-phenylhydrazine-1-carbothioamide], the melting point was 205.2 to 206.8 °C. In addition, on hMAO-A, the inhibition at 1000 µM was 36.7 ± 0.91% and the inhibition at 100 µM was 23.4 ± 0.832%. In addition, on hMAO-B [1], testing at 1000 µM gave an inhibition of 85.5 ± 1.53% and the inhibition at 100 µM stood at 40.8 ± 0.827%.

Compound `S=C(NN=Cc1cc2ccccc2o1)Nc1ccccc1Cl` [Compound 2f, 2-(Benzofuran-2-ylmethylene)-N-(2-chlorophenyl)hydrazine-1-carbothioamide] registered a melting point of 203.6 to 204.9 °C. Further, at hMAO-A, the inhibition at 1000 µM was determined as 31.1 ± 0.994% and testing at 100 µM gave an inhibition of 24.2 ± 0.711%. At hMAO-B [1], this compound came in with an inhibition at 1000 µM of 82.4 ± 1.33% and an inhibition at 100 µM of 47.4 ± 0.93%.

In turn, `CCNC(=S)NN=Cc1cc2ccccc2s1` [Compound 2g, 2-(Benzo[b]thiophen-2-ylmethylene)-N-ethylhydrazine-1-carbothioamide] returned a melting point of 198.9 to 201 °C. At hMAO-A, this compound yielded an inhibition at 1000 µM of 38.9 ± 0.854% and an inhibition at 100 µM of 28.7 ± 0.803%. On hMAO-B [1], the inhibition at 1000 µM came to 79 ± 1.7% and 100 µM produced 44.8 ± 0.758% inhibition.

The compound `COCCNC(=S)NN=Cc1cc2ccccc2s1` [Compound 2h, 2-(Benzo[b]thiophen-2-ylmethylene)-N-(2-methoxyethyl)hydrazine-1-carbothioamide] had a melting point of 164.9 to 166.2 °C. At hMAO-A, this compound registered an inhibition at 1000 µM of 36.8 ± 0.741% and an inhibition at 100 µM of 21.9 ± 0.75%. Besides, at hMAO-B [1], the inhibition at 1000 µM was determined as 90.4 ± 1.6%, the inhibition at 10 µM was found to be 80.8 ± 1.04%, the inhibition at 1 µM is 72.2 ± 1.39% and at 0.1 µM the inhibition was 65 ± 1.11%. On hMAO-B [1], the inhibition at 0.01 µM was 42.8 ± 0.948%, at 0.001 µM the inhibition was 30.9 ± 0.782% and the IC50 was 56 ± 2 nM. Also, on hMAO-B [2], the “Type of hMAO-B inhibition” value was “reversible and non-competitive”; the Ki was found to be 46 nM. Further, the IC50 in “MTT cytotoxicity assay” was found to be 81300 nM. Further, the “Cytotoxicity at effective concentration against MAO-B” value in data set [3] is “non-cytotoxic”.

`CCCCNC(=S)NN=Cc1cc2ccccc2s1` [Compound 2i, 2-(Benzo[b]thiophen-2-ylmethylene)-N-butylhydrazine-1-carbothioamide] came in with a melting point of 168.9 to 170.7 °C. On hMAO-A, the inhibition at 1000 µM was 35.7 ± 0.863% and the inhibition at 100 µM was found to be 29.2 ± 0.816%. In addition, on hMAO-B [1], at 1000 µM the inhibition was 84.7 ± 1.63% and at 100 µM the inhibition was 46 ± 0.931%.

As for `S=C(NN=Cc1cc2ccccc2s1)NC1CCCCC1` [Compound 2j, 2-(Benzo[b]thiophen-2-ylmethylene)-N-cyclohexylhydrazine-1-carbothioamide], the melting point is 213.7 to 215.1 °C. Also, on hMAO-A, at 1000 µM the inhibition was 33.7 ± 0.729% and 100 µM produced 23 ± 0.863% inhibition. Further, at hMAO-B [1], the inhibition at 1000 µM worked out at 82.9 ± 1.62% and at 100 µM the inhibition was 43 ± 0.965%.

`S=C(NN=Cc1cc2ccccc2s1)Nc1ccccc1` [Compound 2k, 2-(Benzo[b]thiophen-2-ylmethylene)-N-phenylhydrazine-1-carbothioamide] registered a melting point of 213.9 to 216 °C. On hMAO-A, this compound displayed an inhibition at 1000 µM of 31.1 ± 0.911% and an inhibition at 100 µM of 27.9 ± 0.815%. For the same compound, on hMAO-B [1], the inhibition at 1000 µM turned out to be 80.5 ± 1.48% and testing at 100 µM gave an inhibition of 46.7 ± 0.899%.

`S=C(NN=Cc1cc2ccccc2s1)Nc1ccccc1Cl` [Compound 2l, 2-(Benzo[b]thiophen-2-ylmethylene)-N-(2-chlorophenyl)hydrazine-1-carbothioamide] displayed a melting point of 212.6 to 214.4 °C. For the same compound, at hMAO-A, testing at 1000 µM gave an inhibition of 36.7 ± 0.966% and testing at 100 µM gave an inhibition of 24.4 ± 0.721%. At hMAO-B [1], 1000 µM produced 83.6 ± 1.6% inhibition and the inhibition at 100 µM amounted to 42.2 ± 0.763%.

The inhibition is the drop in the measured response relative to a control, in per cent. A higher inhibition goes with strong suppression. Usually melting point stands for the temperature of the solid-liquid transition. The term Ki denotes a measure of affinity in units of concentration, obtained from inhibition or displacement.
